Source: US6710168B1, “Glycopeptide antibiotics, combinatorial libraries of glycopeptide antibiotics and methods of producing same” (The Trustees of the University of Princeton, priority 1999, dated 2004)
Values after ≈ are worked out from the molar mass of the structure shown.

Legend:
Type in all cases: cell-based
[1] = system: gentamicin, streptmycin, vancomycin resistant Enterococcus faecalis (ATCC 51299); test: microbe, parasite or virus in culture; settings: for MIC VREF: Enterococcus faecalis ATCC51299, vancomycin resistance; for MIC: Enterococcus faecalis, ATCC51299, read-out: MIC VREF
Protocol: (§1) Evaluation of vancomycin analogs is performed using in vitro susceptibility tests and a time-kill assay. [NCCL Standard, 1993] In susceptibility tests, five strains of bacteria, two of the most important: Staphylococcus aureus and Enterococcus faecalis (both susceptible and resistant strains), and Bacillus cereus are chosen and bacteria viability remaining in each well is evaluated using a colorimetric assay based on the tetrazolium salt 3-(4,5-dimethyl-2-thiazolyl)-2,5-diphenyl-2H tetrazolium bromide (MTT) and minimum inhibitory concentration (MIC) values are determined as μg/mL. [Mosmann, T. (1983); Damour, O., et al. (1992); Mikami, Y., et al. (1994)] This assay gives susceptibility information quickly, efficiently, and clearly.
(§2) All strains [Bacillus cereus (ATCC® 11778), Staphylococcus aureus (ATCC® 29213), Methicillin resistant Staphylococcus aureus (ATCC® 33591), Enterococcus faecalis (ATCC® 29212), and gentamicin, streptmycin, vancomycin resistant Enterococcus faecalis (ATCC® 51299), are purchased from REMEL (Lenexa, Kans.).
(§3) MICs are determined by the microdilution method using 96-well microplates. Samples are suspended with Cation Adjusted (20 to 25 mg of Ca^2+/mL and 10 to […] of Mg^2+) Mueller-Hinton broth (Difco Laboratories, Detroit, Mich.) and are two-fold diluted from 5 μg/mL to […] on microplates (12 step dilution). To each well, which contained 100 μL of cell suspension (10^6 CFU/mL), 100 μL of antibiotic solution is added and the plates are incubated at 37° C. for 24 h. 50 μL of MTT solution (1 mg/mL) is added to each well, then the plates are incubated under the same conditions (incubation time; 30 min for Bacillus cereus, Staphylococcus aureus, and Methicillin resistant Staphylococcus aureus; 2 hours for Enterococcus faecalis and Gentamicin, Streptmycin, Vancomycin Enterococcus faecalis). MTT is a yellow tetrazolium salt that is reduced by mitochondrial enzymes in viable cells to an insoluble blue formazan product. MIC values are evaluated by observing the lowest drug concentration to inhibit bacteria growth.

[2] = system: Bacillus cereus (ATCC 11778); test: MIC susceptibility test, microdilution with MTT readout; settings: for MIC BC: Bacillus ceres ATCC11778; for MIC: Bacillus cereus, ATCC11778, read-out: MIC BC
Protocol: as §1, §2, §3

[3] = system: Methicillin resistant Staphylococcus aureus (ATCC 33591); test: as above; settings: Staphylococcus aureus ATCC3359, Methicillin resistance; for MIC: ATCC 3359 / ATCC 33591 / MRSA, read-out: MIC MRSA
Protocol: as §1, §2, §3

[4] = system: Staphylococcus aureus (ATCC 29213); test: as above; settings: Staphylococcus aureus ATCC29213; for MIC: read-out: MIC SA
Protocol: as §1, §2, §3

[5] = system: Enterococcus faecalis (ATCC 29212); test: as above; settings: Enterococcus faecalis ATCC29212; for MIC: read-out: MIC EF
Protocol: as §1, §2, §3

[6] = system: Enterococcus faecium CL5137, VanA; test: MIC susceptibility test; settings: Enterococcus faecium CL5137, VanA; for MIC: read-out: MIC CL5137
[7] = system: Enterococcus faecalis CL5244, VanB; test: MIC susceptibility test; settings: Enterococcus faecalis CL5244, VanB; for MIC: read-out: MIC CL5244
Protocol: as §1, §3

CNC(CC(C)C)C(=O)NC1C(=O)NC(CC(N)=O)C(=O)NC2C(=O)NC3C(=O)NC(C(=O)NC(C(=O)O)c4cc(O)cc(O)c4-c4cc3ccc4O)C(O)c3ccc(c(Cl)c3)Oc3cc2cc(c3OC2OC(CSc3cccc(Cl)c3)C(O)C(O)C2OC2CC(C)(N)C(O)C(C)O2)Oc2ccc(cc2Cl)C1O (stereo not drawn) [LV, Glucose-C6-3-chlorothiophenyl Vancomycin]
MIC VREF [1]: 0.63 µg/mL (≈ 0.4 µM)
MIC BC [2]: 0.63 µg/mL (≈ 0.4 µM)
MIC MRSA [3]: 0.32 µg/mL (≈ 0.203 µM)
MIC SA [4]: 0.48 µg/mL (≈ 0.305 µM)
MIC EF [5]: 0.63 µg/mL (≈ 0.4 µM)
MIC CL5137 [6]: 50< μg/mL
MIC CL5244 [7]: 3.2 µg/mL (≈ 2.03 µM)

CN[C@@H](CC(C)C)C(=O)N[C@H]1C(=O)N[C@@H](CC(N)=O)C(=O)N[C@H]2C(=O)NC3C(=O)N[C@H](C(=O)N[C@@H](C(=O)O)c4cc(O)cc(O)c4-c4cc3ccc4O)[C@H](O)c3ccc(c(Cl)c3)Oc3cc2cc(c3OC2OC(CSc3nnc(NN)n3N)C(O)C(O)C2OC2CC(C)(NCc3ccc(-c4ccc(Cl)cc4)cc3)C(O)C(C)O2)Oc2ccc(cc2Cl)[C@H]1O (stereo partly drawn) [LXXXIV, N-4-(4-Chlorophenyl)benzylvancosamine-glucose-C6-5-thio-4-amino-3-hydrazino-1,2,4-triazole Vancomycin]
MIC [1]: 0.16 µg/mL (≈ 0.09 µM)
MIC [2]: 0.08 µg/mL (≈ 0.045 µM)
MIC [3]: 0.48 µg/mL (≈ 0.27 µM)
MIC [4]: 0.63 µg/mL (≈ 0.354 µM)
MIC [5]: 0.12 µg/mL (≈ 0.0675 µM)
MIC [6]: 6.3 µg/mL (≈ 3.54 µM)
MIC [7]: 0.2 µg/mL (≈ 0.112 µM)

CNC(CC(C)C)C(=O)NC1C(=O)NC(CC(N)=O)C(=O)NC2C(=O)NC3C(=O)NC(C(=O)NC(C(=O)O)c4cc(O)cc(O)c4-c4cc3ccc4O)C(O)c3ccc(c(Cl)c3)Oc3cc2cc(c3OC2OC(CNCc3ccc(-c4ccc(Cl)cc4)cc3)C(O)C(O)C2OC2CC(C)(N)C(O)C(C)O2)Oc2ccc(cc2Cl)C1O (stereo not drawn) [XXIX, Glucose-C6-N-4-(4-chlorophenyl)benzyl Vancomycin]
MIC VREF [1]: 0.63 µg/mL (≈ 0.382 µM)
MIC BC [2]: 0.63 µg/mL (≈ 0.382 µM)
MIC MRSA [3]: 0.63 µg/mL (≈ 0.382 µM)
MIC SA [4]: 0.63 µg/mL (≈ 0.382 µM)
MIC EF [5]: 0.63 µg/mL (≈ 0.382 µM)
MIC CL5137 [6]: 50 µg/mL (≈ 30.3 µM)
MIC CL5244 [7]: 0.6 µg/mL (≈ 0.364 µM)

CN[C@H](CC(C)C)C(=O)N[C@H]1C(=O)N[C@@H](CC(N)=O)C(=O)N[C@H]2C(=O)N[C@H]3C(=O)N[C@H](C(=O)N[C@H](C(=O)O)c4cc(O)cc(O)c4-c4cc3ccc4O)[C@H](O)c3ccc(c(Cl)c3)Oc3cc2cc(c3OC2OC(CSc3nc(N)n[nH]3)C(O)C(O)C2OC2CC(C)(NCc3ccc(-c4ccc(Cl)cc4)cc3)C(O)C(C)O2)Oc2ccc(cc2Cl)[C@H]1O (stereo partly drawn) [LXXIII, Vancosamine-N-4-(4-chlorophenyl)benzyl, Glucose-C6-S-3-amino-5-mercapto-1,2,4-triazole Vancomycin]
MIC [1]: 0.08 µg/mL (≈ 0.0458 µM)
MIC [2]: 0.48 µg/mL (≈ 0.275 µM)
MIC [3]: 1 µg/mL (≈ 0.572 µM)
MIC [4]: 1.9 µg/mL (≈ 1.09 µM)
MIC [5]: 0.16 µg/mL (≈ 0.0915 µM)
MIC [6]: 3.2 µg/mL (≈ 1.83 µM)
MIC [7]: 0.2 µg/mL (≈ 0.114 µM)

CNC(CC(C)C)C(=O)NC1C(=O)NC(CC(N)=O)C(=O)NC2C(=O)NC3C(=O)NC(C(=O)NC(C(=O)O)c4cc(O)cc(O)c4-c4cc3ccc4O)C(O)c3ccc(c(Cl)c3)Oc3cc2cc(c3OC2OC(CI)C(O)C(O)C2OC2CC(C)(NCc3ccc(-c4ccc(Cl)cc4)cc3)C(O)C(C)O2)Oc2ccc(cc2Cl)C1O (stereo not drawn) [LXXIIa, Vancosamine-N-4-(4-chlorophenyl)benzyl-glucose-C6-iodo vancomycin]
MIC VREF [1]: 0.32 µg/mL (≈ 0.182 µM)
MIC BC [2]: 0.32 µg/mL (≈ 0.182 µM)
MIC MRSA [3]: 0.63 µg/mL (≈ 0.358 µM)
MIC SA [4]: 0.48 µg/mL (≈ 0.273 µM)
MIC EF [5]: 0.16 µg/mL (≈ 0.0909 µM)
MIC CL5137 [6]: 13 µg/mL (≈ 7.39 µM)
MIC CL5244 [7]: 0.3 µg/mL (≈ 0.17 µM)

CNC(CC(C)C)C(=O)NC1C(=O)NC(CC(N)=O)C(=O)NC2C(=O)NC3C(=O)NC(C(=O)NC(C(=O)O)c4cc(O)cc(O)c4-c4cc3ccc4O)C(O)c3ccc(c(Cl)c3)Oc3cc2cc(c3OC2OC(CI)C(O)C(O)C2OC2CC(C)(N)C(O)C(C)O2)Oc2ccc(cc2Cl)C1O (stereo not drawn) [LXX, Glucose-C6-iodo Vancomycin]
MIC VREF [1]: 1.9 µg/mL (≈ 1.22 µM)
MIC BC [2]: 0.63 µg/mL (≈ 0.404 µM)
MIC MRSA [3]: 1.3 µg/mL (≈ 0.834 µM)
MIC SA [4]: 0.63 µg/mL (≈ 0.404 µM)
MIC EF [5]: 0.63 µg/mL (≈ 0.404 µM)
MIC CL5137 [6]: 50< μg/mL
MIC CL5244 [7]: 6.3 µg/mL (≈ 4.04 µM)
